According to US20240306641A1, “P-BOOSTER” (EUROCHEM ANTWERPEN, priority 2021, published 2024):

Experiments:
Type in all cases: in vivo
[1] = system: Arabidopsis thaliana Columbia-0; experiment: Arabidopsis pot experiment (rosette size, soil phosphate, anthocyanin)
Protocol: Regular Arabidopsis, soybean and maize pot experiments used an unfertilized potting soil, which was supplemented at the start of the experiment with 50 ml H2O containing 0.25 g/l NH4NO3 and 0.44 g/l (high phosphate) or no (maize and soybean) or 0.11 g/l KH2PO (Arabidopsis) for low phosphate conditions. For the sand-based maize pot experiment, sand was supplemented with 50 ml H2O containing 0.25 g/l NH4NO3 and 0.38 g/l (high phosphate) or 0.02 g/l (low phosphate) KH2PO4. Potassium was balanced via addition of KCl. Compound concentration was 10 μM, calculated based on the total water content after watering, and was added at the start of the experiment (Arabidopsis) or once a week (maize). Indexed chlorophyll contents were received via a SPAD 502 Plus Chlorophyll Meter. All parameters in the sand experiment, except the rate of leaf 4 (measured the first 4 days after emergence), were measured 19 days after sowing. Measurements in the pot experiments with potting soil were done after 4 weeks of growth, except for leaf 5, which was measured at 26 days. The long term maize pot experiment was performed on the automated Phenovision platform (see Mertens et al, 2021, https://doi.org/10.3389/fpls.2021.640914) with maize cultivars B104 and DKC2931. End point measurements occurred after 90 days (B104) or 70 days (DKC2931). Plants were grown on an unfertilized potting soil, which was fertilized bi-weekly with 50 mL modified Hoagland solution (2.5× concentrated; but with 0.25 mM KH2PO4). Col-0 ecotype Arabidopsis seeds were sown in 96-well plates containing 150 μl of low phosphate modMS liquid medium containing 1% of sucrose. Compounds was added in 50 μM concentration (1% DMSO). 7 days after germination, plates were scanned using a flatbed scanner (EPSON Expression 11000XL) and wells containing non-germinated seedlings were excluded from the following analysis. Plants were removed from each well and 50 μl of medium was recovered from each well and used for molybdenum blue staining as described in Plant Physiology 2008, 146:1673-1686. To measure the phosphate level in soil, Olsen P extraction was used on 1 g of air dried soil, 500 ul of extract was used for molybdenum blue staining as described in The Plant cell 2013, 25:1641-1656. Values were expressed relative to the low phosphate control. Col-0 ecotype Arabidopsis seeds were sown in 96-well plates containing 150 μl of low phosphate modMS liquid medium containing 1% of sucrose. […] Extraction and quantification of anthocyanin levels was carried out according to The Plant cell 2013, 25:1641-1656. Anthocyanin levels were quantified by measuring absorption at 530 and 657 nm using a spectrophotometer and normalized to fresh weight input, and expressed relative to the low phosphate control. […]

[2] = system: rice cultivar Nipponbare; experiment: Rice box experiment (plant height); settings: low phosphate 0.025 mM, 10 μM compound, 13 days after germination
Protocol: (§1) All Arabidopsis plant experiments were performed using the Arabidopsis thaliana Columbia-0 background. The Arabidopsis pSPX1::GUS line is described in the […] 2008, 54: 965-975. For rice, the cultivar Nipponbare was used. For maize, the cultivars DKC 2931 and 8104 were used for regular pot experiments and sand-based pot experiments, respectively. For soybean, the cultivar Primus was used. […] The medium was solidified due to the addition of 0.6% Gelrite, unless stated otherwise. […]
Arabidopsis primary root growth experiments were done on MS1/2 on vertical standing plates and roots were measured 11 days after germination. Roots were imaged using a flatbed scanner (EPSON Expression 11000XL) and root length was measured using ImageJ software. Arabidopsis shoot biomass was determined in 11 days after germination and growth on vertical standing plates with modMS. Arabidopsis leaf area was measured 21 days after germination on horizontal plates with modMS medium. Plates were scanned from the top using a flatbed scanner (EPSON Expression 11000XL) and the visible leaf area was measured using ImageJ software. […] Plant height was measured 11 days after germination. […] Plant height was measured 13 days after germination. […]

[3] = system: Arabidopsis thaliana Columbia-0; experiment: Arabidopsis horizontal plate leaf area assay
Protocol: All Arabidopsis plant experiments were performed using the Arabidopsis thaliana Columbia-0 background. The Arabidopsis pSPX1::GUS line is described in the […] 2008, 54: 965-975. For rice, the cultivar Nipponbare was used. For maize, the cultivars DKC 2931 and 8104 were used for regular pot experiments and sand-based pot experiments, respectively. For soybean, the cultivar Primus was used. […] The medium was solidified due to the addition of 0.6% Gelrite, unless stated otherwise. In case of vertical plates (root length and root hair measurements), the medium was supplied with 0.5% of sucrose and 1 μM (low phosphate, 1 μM KH2PO4, 9.9 mM KCl), 10 μM (low phosphate 10 μM KH2PO4, 9.9 mM KCl) or 1.25 mM KH2PO4 (high phosphate). Arabidopsis seeds were stratified for 2 days at 4° C. before germination. Seedlings were germinated in climate-controlled growth chambers at 22° C. under continuous light ([…] m^−2 s^−1). Husked rice seeds were germinated on wetted Whatman paper for 2 days at 37° C. and then transferred to Sterivent boxes or square Petri dishes with solid medium. Maize and soybean seeds were wetted 24 hours at room temperature prior to sowing in pots.
Arabidopsis primary root growth experiments were done on MS1/2 on vertical standing plates and roots were measured 11 days after germination. Roots were imaged using a flatbed scanner (EPSON Expression 11000XL) and root length was measured using ImageJ software. Arabidopsis shoot biomass was determined in 11 days after germination and growth on vertical standing plates with modMS. Arabidopsis leaf area was measured 21 days after germination on horizontal plates with modMS medium. Plates were scanned from the top using a flatbed scanner (EPSON Expression 11000XL) and the visible leaf area was measured using ImageJ software. Rice plate experiments used vertically standing Petri dishes containing MS1/2 medium (low phosphate—0.001 mM) solidified with 0.8% washed agar. Plant height was measured 11 days after germination. Rice box experiments used modMS medium and a low phosphate condition of 0.025 mM phosphate. Plant height was measured 13 days after germination. All growth experiments occurred with 10 μM of compound and in low phosphate conditions, unless stated otherwise. Controls always received the same DMSO concentration.

[4] = system: soybean cultivar Primus; experiment: Soybean pot experiment; settings: low phosphate, 4 weeks
Protocol: as §1
Regular Arabidopsis, soybean and maize pot experiments used an unfertilized potting soil, which was supplemented at the start of the experiment with 50 ml H2O containing 0.25 g/l NH4NO3 and 0.44 g/l (high phosphate) or no (maize and soybean) or 0.11 g/l KH2PO (Arabidopsis) for low phosphate conditions. […] Compound concentration was 10 μM, calculated based on the total water content after watering, and was added at the start of the experiment (Arabidopsis) or once a week (maize). […] All parameters in the sand experiment, except the rate of leaf 4 (measured the first 4 days after emergence), were measured 19 days after sowing. Measurements in the pot experiments with potting soil were done after 4 weeks of growth, except for leaf 5, which was measured at 26 days. […]

With `CCN(CCCNc1ncnc2nc(N)ccc12)c1ccccc1` [Example 1] the Relative anthocyanin level ([1]; Arabidopsis pot, 4-week old plant, relative to low phosphate control (=1)) was 0.7, the “Phosphate level in soil (relative value)” value ([1]; Arabidopsis pot, Olsen P, after 4 weeks, relative to low phosphate control (=1)) was 0.8 and the Rosette size ([1]; Arabidopsis pot, low phosphate, 10 μM compound, 4 weeks) was 17 cm^2. The “Anthocyanin level in the leaves (in words)” value ([1]; plants grown in pots) was “reduced”, the Plant height [2] was 4.1 cm and the Leaf area ([3]; Arabidopsis horizontal plate, low phosphate, 10 μM compound, 21 days after germination (Table 1)) was 94 mm^2. For the same compound, the “Leaf area in suboptimal phosphate conditions” value ([3]; Arabidopsis horizontal plate, suboptimal phosphate (600 μM), 10 μM compound) was 120 mm^2, the Average leaf area ([3]; Arabidopsis horizontal plates (Table 4), control without compound 63) was 66 mm^2 and the Biomass [4] was 4.4 g. It also gave a Plant height [4] of 63 cm.
